From ChEMBL document CHEMBL4130445, “TNF-α and IL-6 inhibitors: Conjugates of N-substituted indole and aminophenylmorpholin-3-one as anti-inflammatory agents” (Eur J Med Chem, 2017)
Active and inactive are the calls of the source. The rule behind the calls is not given here.

Experiments:
BV-2 [1] = assay: Cytotoxicity in mouse BV2 cells assessed as reduction in cell viability incubated for 48 hrs by MTT assay; format: cell-based; conditions: BV-2, 48 h
BV-2 [2] = assay: Suppression of LPS-induced morphological changes in mouse BV2 cells at 5 uM pre-incubated before LPS stimulation by phase contrast microscopy; format: functional, cell-based
BV-2 [3] = assay: Suppression of LPS-induced morphological changes in mouse BV2 cells at 10 uM pre-incubated before LPS stimulation by phase contrast microscopy; format: functional, cell-based
[4] = target: T1, Prostaglandin G/H synthase 2 (Homo sapiens) (UniProt P35354); assay: Inhibition of COX2 (unknown origin) by immunoassay
T1 sequence (whole entry): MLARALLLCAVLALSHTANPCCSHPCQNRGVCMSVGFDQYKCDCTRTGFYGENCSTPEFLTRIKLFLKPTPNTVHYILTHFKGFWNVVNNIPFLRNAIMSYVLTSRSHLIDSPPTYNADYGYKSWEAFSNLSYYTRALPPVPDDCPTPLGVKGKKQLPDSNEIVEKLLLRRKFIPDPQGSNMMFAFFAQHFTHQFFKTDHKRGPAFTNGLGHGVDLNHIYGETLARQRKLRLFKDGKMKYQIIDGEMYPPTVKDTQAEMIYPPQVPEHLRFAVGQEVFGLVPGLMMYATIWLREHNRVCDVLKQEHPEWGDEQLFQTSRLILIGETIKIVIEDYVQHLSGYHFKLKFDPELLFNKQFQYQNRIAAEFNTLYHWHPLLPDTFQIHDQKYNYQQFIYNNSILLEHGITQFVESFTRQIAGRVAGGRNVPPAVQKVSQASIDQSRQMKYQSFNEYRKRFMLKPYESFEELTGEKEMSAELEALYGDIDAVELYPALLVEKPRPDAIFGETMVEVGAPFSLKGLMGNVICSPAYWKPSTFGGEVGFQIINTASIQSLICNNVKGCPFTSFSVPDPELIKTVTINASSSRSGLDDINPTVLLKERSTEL

BV-2 [5] = assay: Inhibition of LPS-induced TNFalpha production in mouse BV2 cells at 10 uM pre-incubated before LPS stimulation by ELISA; format: functional
BV-2 [6] = assay: Inhibition of LPS-induced TNFalpha production in mouse BV2 cells at 20 uM pre-incubated before LPS stimulation by ELISA; format: functional
BV-2 [7] = assay: Inhibition of LPS-induced IL6 production in mouse BV2 cells at 10 uM pre-incubated before LPS stimulation by ELISA; format: functional
BV-2 [8] = assay: Inhibition of LPS-induced IL6 production in mouse BV2 cells at 20 uM pre-incubated before LPS stimulation by ELISA; format: functional
Mus musculus [9] = organism: Mus musculus; assay: Inhibition of LPS-induced NFkappaB nuclear translocation in mouse BV2 cells pre-incubated before LPS stimulation by immunostaining based confocal laser microscopy; format: cell-based
[10] = target: Transcription factor Jun (Mus musculus) (UniProt P05627); assay: Inhibition of LPS-induced AP1 nuclear translocation in mouse BV2 cells pre-incubated before LPS stimulation by immunostaining based confocal laser microscopy; format: cell-based
Chain of Transcription factor Jun (Mus musculus) (P05627 whole entry): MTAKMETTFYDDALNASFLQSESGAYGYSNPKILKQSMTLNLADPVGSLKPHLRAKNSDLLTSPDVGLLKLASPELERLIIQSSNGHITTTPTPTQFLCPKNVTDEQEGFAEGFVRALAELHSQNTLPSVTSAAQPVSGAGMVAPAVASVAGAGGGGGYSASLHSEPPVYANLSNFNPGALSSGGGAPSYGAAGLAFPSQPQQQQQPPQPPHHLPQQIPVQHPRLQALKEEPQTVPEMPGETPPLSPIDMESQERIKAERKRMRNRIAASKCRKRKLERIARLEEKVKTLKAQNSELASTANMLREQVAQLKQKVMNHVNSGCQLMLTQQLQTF

BV-2 [11] = assay: Inhibition of LPS-induced MMP9 production production in mouse BV2 cells pre-incubated before LPS stimulation by gelatin zymography; format: functional, cell-based
BV-2 [12] = assay: Inhibition of LPS-induced MMP2 production production in mouse BV2 cells pre-incubated before LPS stimulation by gelatin zymography; format: functional, cell-based
Mus musculus [13] = assay: Toxicity in Swiss albino mouse model of acetic acid induced writhing up to 2000 mg/kg, ip dosed 30 mins before acetic acid injection; format: organism-based; conditions: in vivo, 0.5 h
Mus musculus [14] = assay: Analgesic activity in Swiss albino mouse model of acetic acid induced writhing assessed as inhibition of pain response at 10 mg/kg, ip dosed 30 mins before acetic acid injection; format: functional
[15] = Cytotoxicity in mouse BV2 cells assessed as cell viability at 0.5 uM incubated for 48 hrs by MTT assay (reference value: 100%); format: cell-based, BV-2; conditions: read-out: Activity
[16] = Cytotoxicity in mouse BV2 cells assessed as cell viability at 1 uM incubated for 48 hrs by MTT assay (reference value: 100%); format: cell-based, BV-2; conditions: read-out: Activity
[17] = Cytotoxicity in mouse BV2 cells assessed as cell viability at 5 uM incubated for 48 hrs by MTT assay (reference value: 100%); format: cell-based, BV-2; conditions: read-out: Activity
[18] = Cytotoxicity in mouse BV2 cells assessed as cell viability at 10 uM incubated for 48 hrs by MTT assay (reference value: 100%); format: cell-based, BV-2; conditions: read-out: Activity
[19] = Cytotoxicity in mouse BV2 cells assessed as cell viability at 15 uM incubated for 48 hrs by MTT assay (reference value: 100%); format: cell-based, BV-2; conditions: read-out: Activity
[20] = Cytotoxicity in mouse BV2 cells assessed as cell viability at 20 uM incubated for 48 hrs by MTT assay (reference value: 100%); format: cell-based, BV-2; conditions: read-out: Activity
[21] = Cytotoxicity in mouse BV2 cells assessed as cell viability at 40 uM incubated for 48 hrs by MTT assay (reference value: 100%); format: cell-based, BV-2; conditions: read-out: Activity
[22] = Cytotoxicity in mouse BV2 cells assessed as cell viability at 60 uM incubated for 48 hrs by MTT assay (reference value: 100%); format: cell-based, BV-2; conditions: read-out: Activity
[23] = Cytotoxicity in mouse BV2 cells assessed as cell viability at 80 uM incubated for 48 hrs by MTT assay (reference value: 100%); format: cell-based, BV-2; conditions: read-out: Activity
[24] = Cytotoxicity in mouse BV2 cells assessed as cell viability at 100 uM incubated for 48 hrs by MTT assay (reference value: 100%); format: cell-based, BV-2; conditions: read-out: Activity
BV-2 [25] = assay: Inhibition of LPS-induced nitric oxide production in mouse BV2 cells assessed as nitric oxide level at 10 uM pre-incubated before LPS stimulation by Griess reagent based assay (reference value: 121.09%); format: functional; design: scale not given: the % may be the effect or the level left
BV-2 [26] = assay: Inhibition of LPS-induced nitric oxide production in mouse BV2 cells assessed as nitric oxide level at 20 uM pre-incubated before LPS stimulation by Griess reagent based assay (reference value: 121.09%); format: functional; design: scale not given: the % may be the effect or the level left
BV-2 [27] = assay: Inhibition of LPS-induced TNFalpha production in mouse BV2 cells assessed as TNFalpha level at 10 uM pre-incubated before LPS stimulation by ELISA (reference value: 142.71%); format: functional; design: scale not given: the % may be the effect or the level left
BV-2 [28] = assay: Inhibition of LPS-induced TNFalpha production in mouse BV2 cells assessed as TNFalpha level at 20 uM pre-incubated before LPS stimulation by ELISA (reference value: 142.71%); format: functional; design: scale not given: the % may be the effect or the level left
BV-2 [29] = assay: Inhibition of LPS-induced IL6 production in mouse BV2 cells assessed as IL6 level at 10 uM pre-incubated before LPS stimulation by ELISA (reference value: 146.75%); format: functional; design: scale not given: the % may be the effect or the level left
BV-2 [30] = assay: Inhibition of LPS-induced IL6 production in mouse BV2 cells assessed as IL6 level at 20 uM pre-incubated before LPS stimulation by ELISA (reference value: 146.75%); format: functional; design: scale not given: the % may be the effect or the level left
BV-2 [31] = assay: Inhibition of LPS-induced MMP9 production production in mouse BV2 cells assessed as MMP9 protein level pre-incubated before LPS stimulation by gelatin zymography (reference value: 105.113%); format: functional; design: scale not given: the % may be the effect or the level left
BV-2 [32] = assay: Inhibition of LPS-induced MMP2 production production in mouse BV2 cells assessed as MMP2 protein level pre-incubated before LPS stimulation by gelatin zymography (reference value: 105.071%); format: functional; design: scale not given: the % may be the effect or the level left

Q: With O=C1COCCN1c1ccc(/N=C\c2cn(C(=O)c3ccc(Cl)cc3)c3ccccc23)cc1 as the molecule, how does the IC50 (BV-2 [1]) read?
A: > 100 µM

Q: What about the Activity (BV-2 [2]) of the same molecule?
A: Active

Q: What about the Activity (BV-2 [3]) of the same molecule?
A: Active

Q: And the inhibition [4]?
A: inactive

Q: What about the inhibition at 10 µM (BV-2 [5]) of the same molecule?
A: 60.5%

Q: And the inhibition at 20 µM (BV-2 [6])?
A: 70.9%

Q: What about the inhibition at 10 µM (BV-2 [7]) of the same molecule?
A: 47.9%

Q: And the inhibition at 20 µM (BV-2 [8])?
A: 52.9%

Q: And the inhibition (Mus musculus [9])?
A: Active

Q: What about the inhibition [10] of the same molecule?
A: Active

Q: What about the inhibition (BV-2 [11]) of the same molecule?
A: Active

Q: What about the inhibition (BV-2 [12]) of the same molecule?
A: Active

Q: And the Activity (Mus musculus [13])?
A: Non-Toxic

Q: What about the inhibition in vivo at 10 mg/kg (Mus musculus [14]) of the same molecule?
A: 74.9%

Q: And the viability at 48 h, 0.5 µM [15]?
A: 95.2%

Q: What about the viability at 48 h, 1 µM [16] of the same molecule?
A: 97.6%

Q: What about the viability at 48 h, 5 µM [17] of the same molecule?
A: 93.6%

Q: What about the viability at 48 h, 10 µM [18] of the same molecule?
A: 90.1%

Q: What about the viability at 48 h, 15 µM [19] of the same molecule?
A: 105%

Q: What about the viability at 48 h, 20 µM [20] of the same molecule?
A: 99%

Q: And the viability at 48 h, 40 µM [21]?
A: 96.6%

Q: And the viability at 48 h, 60 µM [22]?
A: 84.2%

Q: And the viability at 48 h, 80 µM [23]?
A: 90.3%

Q: And the viability at 48 h, 100 µM [24]?
A: 80.5%

Q: And the Activity (BV-2 [25])?
A: 100.905%

Q: What about the Activity (BV-2 [26]) of the same molecule?
A: 100.905%

Q: And the Activity (BV-2 [27])?
A: 56.34%

Q: What about the Activity (BV-2 [28]) of the same molecule?
A: 41.58%

Q: And the Activity (BV-2 [29])?
A: 76.51%

Q: What about the Activity (BV-2 [30]) of the same molecule?
A: 69.12%

Q: What about the Activity (BV-2 [31]) of the same molecule?
A: 89.261%

Q: And the Activity (BV-2 [32])?
A: 84.884%
